Test results taken from patent US20030187035A1, “Substituted hydrazones as inhibitors of cyclooxygenase-2” (priority 2001, published 2003).

How the values were obtained:
[1] = test system: DLD-1 cells; assay: Soft agar assay, anchorage-independent colony growth; type: cell-based; details: DLD-1 human colorectal carcinoma cells in soft agar, three weeks
Experimental: The Example 2, 3, 4 and 9 compounds were compared to the COX-2 inhibitor celecoxib in inhibiting the growth of DLD-1 cells in soft agar. DLD-1 cells are human colorectal carcinoma cells that overexpress COX-2. DLD-1 cells grow in soft agar and form tumors in nude mice. The soft agar assay was performed as follows. Bottom agar was first prepared as a 3 mL layer of 0.8% noble agar prepared in complete growth medium (DMEM containing 10% FBS and 500 units of penicillin-streptomycin) and placed into 60 mm^2 tissue culture dishes. The tumor cells were trypsinized from normal growth flasks while in exponential growth. The cells were counted by using a hemacytometer and 5.0×10^4 viable cells were mixed with 0.4% noble agar containing growth medium and various concentrations of drugs. Non-treated control plates received DMSO alone. Each drug concentration was run in duplicate. The concentration range was normally between 10 μM to 75 μM. The plates were incubated at 37° C. under 95% humidity for three weeks and stained with a 0.05% (w/v) nitroblue tetrazolium solution. This solution will only stain viable cells so that all growing cell in the form of colonies will appear blue. The plates were photographed using an Olympus stereoscope mounted with a SONY digital camera system.

[2] = test system: HT29; assay: In vitro cytotoxicity assay (trypan exclusion, viable cell count); type: cell-based; details: HT-29; HT29 human colo-rectal carcinoma, 96 hours
Experimental: (§1) The human colo-rectal carcinoma cell lines DLD-1, HT29, and HCT 116, and the human prostate carcinoma cell line DU145, were grown exponentially and plated onto 6 well dishes at a cell density of 1.0×10^5 cells per 35 mm well. Various concentration of 4-bromobenzaldehyde-4-sulfamylphenylhydrazone (Ex. 4) or DMSO were added 24 hours later. The number of viable cells were determined at each concentration tested 96 hours later by trypan exclusion using a hemacytometer. The GI50 (concentration of drug that inhibits 50% of tumor cell growth when compared to tumor cells treated with same volume of DMSO) was determined for each cell line.
The same protocol was used to compare the growth inhibitory activity of 4-bromobenzaldehyde-4-sulfamylphenylhydrazone and celecoxib against the human colo-rectal tumor cell line HT29. The data are plotted as the percent of viable cells remaining as compared to DMSO (non-treated) cells.

[3] = test system: HCT116; assay: as above; type: cell-based; details: HCT-116; HCT116 human colo-rectal carcinoma, 96 hours
Experimental: as §1

[4] = test system: DU145; assay: as above; type: cell-based; details: DU-145; DU145 human prostate carcinoma, 96 hours
Experimental: as §1

[5] = test system: DLD-1; assay: as above; type: cell-based; details: DLD-1 human colo-rectal carcinoma, 96 hours
Experimental: as §1

[6] = Bioavailability assay, plasma drug concentration after intraperitoneal injection; type: in vivo; details: mice; for concentration at 120 min: mouse, plasma, ip, 120 minutes post injection
Experimental: The bioavailability of compound of Example 4 was examined as follows. Mice received a single dose (25 or 50 mg/kg) of compound suspended in DMSO via intraperitoneal injection. Plasma drug concentration was measured 120 minutes post injection.

[7] = test system: mice; assay: In vivo toxicity assay, survival after intraperitoneal dosing; details: survival at seven days
Experimental: The compound of Example 4 was examined for in vivo toxicity in mice. Mice received intraperitoneal doses of compound suspended in DMSO, ranging from 25 to 400 mg/kg. Survival at seven days was determined.

NS(=O)(=O)c1ccc(NN=Cc2ccc(F)cc2)cc1 [Example 2, 4-Fluorobenzaldehyde-4-sulfamylphenylhydrazone]
Concentration Required for Complete DLD-1 Colony Growth Inhibition [1]: 30 µM

NS(=O)(=O)c1ccc(NN=Cc2ccc(Cl)cc2)cc1 [Example 3, 4-Chlorobenzaldehyde-4-sulfamylphenylhydrazone]
Concentration Required for Complete DLD-1 Colony Growth Inhibition [1]: 20 µM

NS(=O)(=O)c1ccc(NN=Cc2ccc(Br)cc2)cc1 [Example 4, 4-Bromobenzaldehyde-4-sulfamylphenylhydrazone]
GI50 [2]: 8 µM
Concentration Required for Complete DLD-1 Colony Growth Inhibition [1]: <20 µM
Concentration Required for Complete DLD-1 Colony Growth Inhibition ([1]; listed as Ex. 4): 20 µM
GI50 [3]: 30 µM
GI50 [4]: 30 µM
GI50 [5]: 30 µM
Bioavailability (in words) ([6]; single dose 25 or 50 mg/kg intraperitoneal): high level of bioavailability
concentration at 120 min ([6]; single dose 25 mg/kg intraperitoneal): 38 µg/mL
concentration at 120 min ([6]; single dose 50 mg/kg intraperitoneal): 165 µg/mL
Percent Survival of Mice ([7]; 25 mg/kg intraperitoneal): 100%
Percent Survival of Mice ([7]; 50 mg/kg intraperitoneal): 100%
Percent Survival of Mice ([7]; 100 mg/kg intraperitoneal): 100%
Percent Survival of Mice ([7]; 200 mg/kg intraperitoneal): 100%
Percent Survival of Mice ([7]; 400 mg/kg intraperitoneal): 80%
In vivo toxicity in mice (in words) ([7]; intraperitoneal doses 25 to 400 mg/kg): very low mammalian toxicity

COc1ccc(C=NNc2ccc(S(N)(=O)=O)cc2)cc1 [Example 9, 4-Methoxybenzaldehyde-4-sulfamylphenylhydrazone]
Concentration Required for Complete DLD-1 Colony Growth Inhibition [1]: >75 µM

Cc1ccc(-c2cc(C(F)(F)F)nn2-c2ccc(S(N)(=O)=O)cc2)cc1 [celecoxib, reference compound]
GI50 [2]: 25 µM
